In patent publication US7341836B2, “Modified cyclic nucleotide gated ion channels” (The Regents of the University of Colorado, priority 2001, dated 2008):
Entries after “also recorded” stand apart in the source; their conditions may differ.

Columns and labels:
[1] = system: rat olfactory CNG channel α subunit; test: Excised inside-out patch recordings, cyclic nucleotide dose-response of CNG channel constructs; format: biochemical; conditions: 100 μM IBMX; 1 μM PGE1
In short: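 Inside-out patches were excised and recorded at 20-21° C., with symmetrical 130 mM NaCl, 2 mM HEPES, 0.02 mM EDTA, 1 mM EGTA, pH 7.6. Currents were elicited by 250 ms pulses to +50 and −50 mV; cyclic nucleotide-induced current was taken as the difference with and without cNMP. cAMP and cGMP dose-responses were fitted to the Hill equation for K1/2 and N.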

PDE IV = conditions: cited from earlier work
PDE VI = conditions: cited from earlier work
PDE XI = target: T1, PDE XI (Homo sapiens, UniProt Q9HCR9); conditions: cited from earlier work
T1 construct: host or cells: heterologously expressed
T1 sequence (Q9HCR9 445-933 limits assumed): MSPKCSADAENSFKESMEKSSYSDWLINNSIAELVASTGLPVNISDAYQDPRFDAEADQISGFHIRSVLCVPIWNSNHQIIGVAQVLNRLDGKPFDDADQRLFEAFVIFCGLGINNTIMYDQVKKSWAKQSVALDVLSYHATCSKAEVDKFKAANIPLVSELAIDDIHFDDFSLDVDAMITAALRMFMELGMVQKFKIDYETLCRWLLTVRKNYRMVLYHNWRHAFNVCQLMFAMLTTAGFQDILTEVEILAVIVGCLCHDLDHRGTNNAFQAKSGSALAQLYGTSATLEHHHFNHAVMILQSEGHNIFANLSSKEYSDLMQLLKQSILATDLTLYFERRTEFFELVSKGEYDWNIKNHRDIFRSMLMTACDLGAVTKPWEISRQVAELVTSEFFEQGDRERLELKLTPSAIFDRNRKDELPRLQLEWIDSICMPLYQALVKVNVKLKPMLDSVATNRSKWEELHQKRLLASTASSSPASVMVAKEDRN

Structure (SMILES)	effect on CNG channel activity in excised membrane patches [1]	IC50 (PDE IV) [µM]	IC50 (PDE VI) [µM]	IC50 (PDE XI) [µM]
CC(C)Cn1c(=O)n(C)c(=O)c2[nH]cnc21 [IBMX, 3-isobutyl-1-methylxanthine]	did not alter CNG channel activity; also recorded: no effect on channel activity	5 to 15	10	49.8
COc1ccc(C2CNC(=O)C2)cc1OC1CCCC1 (stereo not drawn) [Rolipram]				> 100
CCCCOc1cc(CC2CNC(=O)N2)ccc1OC (stereo not drawn) [RO-20-1724, 4-(3-butoxy-4-methoxybenzyl)-2-imidazolidinone]	no effect on channel activity			
